≈ marks a conversion by molar mass, not a printed value.
Legend:
[1] = Inhibition of TBHP induced lipid peroxidation in human HaCaT cells; type: functional
[2] = molecular target: T1, Tyrosinase (Agaricus bisporus, UniProt O42713); assay: Inhibition of mushroom tyrosinase
T1 sequence (O42713 whole entry): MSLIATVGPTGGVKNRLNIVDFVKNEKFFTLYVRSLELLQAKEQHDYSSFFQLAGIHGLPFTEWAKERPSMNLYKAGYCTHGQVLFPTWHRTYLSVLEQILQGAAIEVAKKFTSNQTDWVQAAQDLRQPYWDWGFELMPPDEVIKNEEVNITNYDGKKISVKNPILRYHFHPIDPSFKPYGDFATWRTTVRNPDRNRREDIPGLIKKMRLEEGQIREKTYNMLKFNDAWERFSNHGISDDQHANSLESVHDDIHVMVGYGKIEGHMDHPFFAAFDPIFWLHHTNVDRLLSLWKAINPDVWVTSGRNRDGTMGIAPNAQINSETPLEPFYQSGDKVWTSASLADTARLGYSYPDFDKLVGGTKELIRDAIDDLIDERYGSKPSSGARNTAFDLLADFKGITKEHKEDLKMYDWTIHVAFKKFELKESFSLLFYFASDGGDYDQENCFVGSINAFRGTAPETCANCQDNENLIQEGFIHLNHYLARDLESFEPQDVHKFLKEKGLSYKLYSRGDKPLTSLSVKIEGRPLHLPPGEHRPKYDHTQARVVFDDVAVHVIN

[3] = molecular target: T1, Tyrosinase; assay: Inhibition of mushroom tyrosinase diphenolase activity
[4] = molecular target: T2, Tyrosinase (Agaricus bisporus) (UniProt O42713); assay: Inhibition of mushroom tyrosinase monophenolase activity
T2 sequence (whole entry): T1 sequence (O42713 whole entry)

[5] = test system: Saccharomyces cerevisiae; assay: Antifungal activity against Saccharomyces cerevisiae; type: functional
[6] = test system: Aspergillus niger; assay: Antifungal activity against Aspergillus niger; type: functional
[7] = test system: Staphylococcus aureus; assay: Antibacterial activity against Staphylococcus aureus; type: functional
[8] = test system: Escherichia coli; assay: Antibacterial activity against Escherichia coli; type: functional
[9] = test system: Pichia kudriavzevii; assay: Antifungal activity against Candida krusei ATCC 6258; type: functional
[10] = test system: Enterococcus faecalis; assay: Antibacterial activity against Enterococcus faecalis; type: functional
[11] = test system: RAW264.7; assay: Antiinflammatory activity in mouse RAW264.7 assessed as reduction in LPS-induced PGE2 production; type: functional, cell-based
[12] = test system: B16-F10; assay: Inhibition of tyrosinase in mouse B16-F10 cells assessed as inhibition of melanin production at 10 ug/ml relative to control; type: cell-based; settings: dose 10.0 µg/ml
[13] = test system: Staphylococcus aureus; assay: Antibacterial activity against Staphylococcus aureus assessed as zone of inhibition; type: functional
[14] = test system: Bacillus subtilis; assay: Antibacterial activity against Bacillus subtilis assessed as zone of inhibition; type: functional
[15] = Antioxidant activity assessed as DPPH radical scavenging activity; type: functional
[16] = test system: Mycobacterium avium; assay: Antitubercular activity against Mycobacterium avium ATCC 15769; type: functional
[17] = test system: Pseudomonas aeruginosa; assay: Antibacterial activity against Pseudomonas aeruginosa ATCC 10145; type: functional
[18] = test system: Acinetobacter baumannii; assay: Antibacterial activity against Acinetobacter baumannii i RSKK 02026; type: functional
[19] = test system: Candida albicans; assay: Antifungal activity against Candida albicans ATCC10231; type: functional
[20] = test system: Proteus mirabilis; assay: Antibacterial activity against Proteus mirabilis ATCC 7002; type: functional
[21] = test system: Candida tropicalis; assay: Antifungal activity against Candida tropicalis ATCC 13803; type: functional
[22] = test system: Klebsiella pneumoniae; assay: Antibacterial activity against Klebsiella pneumoniae RSKK 574; type: functional
[23] = test system: Candida parapsilosis; assay: Antifungal activity against […]; type: functional; settings: Lodderomyces parapsilosis
[24] = test system: Escherichia coli; assay: Antibacterial activity against Escherichia coli ATCC 35218; type: functional
[25] = test system: Mycobacterium tuberculosis; assay: Antitubercular activity against Mycobacterium tuberculosis H37Rv ATCC 27294; type: functional
[26] = test system: MCF7; assay: Cytotoxicity against human MCF7 cells; type: functional, cell-based
[27] = test system: HeLa; assay: Cytotoxicity against human HeLa cells; type: functional, cell-based
[28] = test system: A549; assay: Cytotoxicity against human A549 cells; type: functional, cell-based
[29] = test system: DU-145; assay: Cytotoxicity against human DU-145 cells; type: functional, cell-based
[30] = molecular target: Amine oxidase [flavin-containing] B (Homo sapiens, UniProt P27338); assay: Inhibition of human MAO-B
[31] = test system: B16-F10; assay: Inhibition of tyrosinase in mouse B16-F10 cells assessed as inhibition of melanin production at 5 ug relative to control; type: cell-based; settings: dose 5.0 µg
[32] = Antiinflammatory activity in macrophages assessed as reduction in LPS-induced NO production; type: functional, cell-based; settings: Macrophage
[33] = test system: Hepatitis C virus; assay: Antiviral activity against HCV; type: functional, organism-based, Hepacivirus hominis
[34] = test system: Staphylococcus aureus; assay: Antibacterial activity against Staphylococcus aureus ATCC 25923; type: functional
[35] = test system: Enterococcus faecalis; assay: Antibacterial activity against Enterococcus faecalis ATCC 29212; type: functional
[36] = test system: Bacillus subtilis; assay: Antibacterial activity against Bacillus subtilis ATCC 6633; type: functional

Chain of Amine oxidase [flavin-containing] B (P27338 whole entry): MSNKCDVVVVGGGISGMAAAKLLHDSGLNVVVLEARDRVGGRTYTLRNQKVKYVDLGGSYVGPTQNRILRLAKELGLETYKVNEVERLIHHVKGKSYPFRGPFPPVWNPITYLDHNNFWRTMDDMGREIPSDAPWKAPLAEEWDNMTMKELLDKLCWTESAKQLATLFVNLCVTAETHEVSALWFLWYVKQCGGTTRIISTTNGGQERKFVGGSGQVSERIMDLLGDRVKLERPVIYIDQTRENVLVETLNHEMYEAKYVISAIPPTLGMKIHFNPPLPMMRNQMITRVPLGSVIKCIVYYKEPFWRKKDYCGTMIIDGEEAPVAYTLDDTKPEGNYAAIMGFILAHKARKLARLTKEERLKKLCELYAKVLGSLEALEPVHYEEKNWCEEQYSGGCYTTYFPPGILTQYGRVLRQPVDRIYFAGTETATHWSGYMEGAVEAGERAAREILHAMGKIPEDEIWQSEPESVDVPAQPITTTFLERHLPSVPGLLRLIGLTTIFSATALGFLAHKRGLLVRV

O=C(/C=C/c1ccc2c(c1)OCO2)OCc1cc(=O)c(O)co1
inhibition (INH) [1]: 47%
IC50 [2]: 1.4 µM

CCCCCCn1cc(O)c(=O)cc1/C=N/OCC
IC50 [3]: 13.9 µM
IC5 [4]: 2.04 µM

CO[C@@H]1O[C@H](COCc2cc(=O)c(O)co2)[C@@H](C)[C@H](OCc2cc(=O)c(O)co2)[C@H]1N
MIC [5]: 1040 µg/mL (≈ 2370 µM)
MIC [6]: 1040 µg/mL (≈ 2370 µM)
MIC [7]: 1040 µg/mL (≈ 2370 µM)
MIC [8]: 1040 µg/mL (≈ 2370 µM)

Cc1cc(=O)c(O)c(C(=O)Nc2ccc3c(C)cc(=O)oc3c2)o1
MIC [9]: 4 µg/mL (≈ 12.2 µM)
MIC [10]: 8 µg/mL (≈ 24.4 µM)
MIC [7]: 8 µg/mL (≈ 24.4 µM)
MIC [8]: 8 µg/mL (≈ 24.4 µM)

O=c1cc(/C=C/c2ccc(O)cc2)occ1O
IC50 [11]: 3.2 µM

O=c1cc(/C=C/c2ccc(O)c(O)c2)occ1O
IC50 [11]: 10.3 µM

O=C(/C=C/c1cc(=O)c(O)co1)OCCCOCCCOC(=O)/C=C/c1cc(=O)c(O)co1
inhibition [12]: 22.4%

N#CC(C(=O)c1c[nH]c2ccccc12)C(c1ccc(Cl)cc1)c1oc(CO)cc(=O)c1O (centres undefined)
inhibition zone (IZ) [13]: 22 mm
inhibition zone (IZ) [14]: 19.5 mm

CCOC(=O)CC(c1ccccc1)c1oc(CO)cc(=O)c1O (centres undefined)
Activity [15]: 58.2%

O=c1cc(CCl)oc(CN2CCN(c3ccccc3)CC2)c1O
MIC [16]: 4 µg/mL (≈ 11.9 µM)
MIC [17]: 8 µg/mL (≈ 23.9 µM)
MIC [18]: 8 µg/mL (≈ 23.9 µM)
MIC [9]: 8 µg/mL (≈ 23.9 µM)
MIC [19]: 8 µg/mL (≈ 23.9 µM)
MIC [20]: 8 µg/mL (≈ 23.9 µM)
MIC [21]: 8 µg/mL (≈ 23.9 µM)
MIC [22]: 8 µg/mL (≈ 23.9 µM)
MIC [23]: 8 µg/mL (≈ 23.9 µM)
MIC [24]: 8 µg/mL (≈ 23.9 µM)
MIC [25]: 4 µg/mL (≈ 11.9 µM)

CC(C)(C)[Si](C)(C)OCc1cc(=O)c(O)c(C(C[N+](=O)[O-])c2ccc(Cl)cc2)o1 (centres undefined)
IC50 [26]: 18 µM
IC50 [27]: 11 µM
IC50 [28]: 18 µM
IC50 [29]: 16 µM

CCc1c(O)c(=O)cc(C)n1CCCn1cc(COc2ccc3ccc(=O)oc3c2)nn1
IC50 [30]: 0.68 µM

O=c1cc(/C=C/c2cc(=O)c(O)co2)occ1O
inhibition [31]: 19.5%

O=c1cc(CSc2ccc(Cl)cc2)occ1O
IC50 [32]: 23.9 µM

COc1ccc(C(=O)OCc2cc(=O)c(O)co2)cc1
IC50 [2]: 20 µM
EC50 [33]: 2.55 µM

O=C(OCc1cc(=O)c(O)co1)c1ccc2ccccc2c1
EC50 [33]: 2.74 µM

O=c1cc(CCl)oc(CN2CCN(Cc3ccc(C(F)(F)F)cc3)CC2)c1O
MIC [16]: 4 µg/mL (≈ 9.6 µM)
MIC [17]: 8 µg/mL (≈ 19.2 µM)
MIC [18]: 8 µg/mL (≈ 19.2 µM)
MIC [34]: 4 µg/mL (≈ 9.6 µM)
MIC [35]: 4 µg/mL (≈ 9.6 µM)
MIC [20]: 8 µg/mL (≈ 19.2 µM)
MIC [22]: 8 µg/mL (≈ 19.2 µM)
MIC [24]: 8 µg/mL (≈ 19.2 µM)
MIC [25]: 4 µg/mL (≈ 9.6 µM)
MIC [36]: 4 µg/mL (≈ 9.6 µM)

From ChEMBL document CHEMBL5233273, “An overview of hydroxypyranone and hydroxypyridinone as privileged scaffolds for novel drug discovery” (Eur J Med Chem, 2021)
